Experimental data: ChEMBL document CHEMBL4725246, “Design, synthesis, and evaluation of a novel macrocyclic anti-EV71 agent” (Bioorg Med Chem, 2020)

Tests used:
[1] = test system: Enterovirus A71; test: Antiviral activity against Enterovirus A71 SK-EV006 measured after 3 to 4 days by cell based assay; type: functional, organism-based; details: Enterovirus A
[2] = Stability in CD-1 mouse plasma assessed as parent compound remaining upto 120 mins by LC-MS analysis; type: ADME, cell-free; details: read-out: Stabilty
[3] = test system: Enterovirus A71; test: Antiviral activity against Enterovirus A71 Shenzhen/120F1/09 infected in human RD cells assessed as […] measured after 72 hrs post-infection by CCK-8 assay; type: functional, organism-based; details: Enterovirus A, Shenzhen/120F1/09, RD

Compound | EC50 [1] | remaining at 2 h [2] | EC50 [3]
Cc1cc(C(=O)N[C@@H](Cc2ccc(F)cc2)C(=O)N[C@H](C=O)C[C@@H]2CCCNC2=O)no1 | 108 nM |  | 
Cc1cc(C(=O)N[C@H](C(=O)NC2C(=O)N[C@@H](CC3CCNC3=O)/C=C/C(=O)OC/C=C/CCOC2c2ccccc2)C(C)C)no1 (stereo partly drawn) |  | 5.6% | 4.5 µM
